Target: T1, human mGluR2 (Homo sapiens, UniProt Q14416)
T1 construct: expressed in transfected cells; host or cells: HEK293 clonal line
Experiment: mGluR2 cAMP assay
Format: cell-based
Conditions: clonally expressed human mGluR2 in HEK293; 1 μM forskolin, 1 μM LY-341495, 30 min; CISBIO cAMP kit; read-out: EC50 (nM), activity in mGluR2 cAMP assay

T1 sequence (Q14416 19-872): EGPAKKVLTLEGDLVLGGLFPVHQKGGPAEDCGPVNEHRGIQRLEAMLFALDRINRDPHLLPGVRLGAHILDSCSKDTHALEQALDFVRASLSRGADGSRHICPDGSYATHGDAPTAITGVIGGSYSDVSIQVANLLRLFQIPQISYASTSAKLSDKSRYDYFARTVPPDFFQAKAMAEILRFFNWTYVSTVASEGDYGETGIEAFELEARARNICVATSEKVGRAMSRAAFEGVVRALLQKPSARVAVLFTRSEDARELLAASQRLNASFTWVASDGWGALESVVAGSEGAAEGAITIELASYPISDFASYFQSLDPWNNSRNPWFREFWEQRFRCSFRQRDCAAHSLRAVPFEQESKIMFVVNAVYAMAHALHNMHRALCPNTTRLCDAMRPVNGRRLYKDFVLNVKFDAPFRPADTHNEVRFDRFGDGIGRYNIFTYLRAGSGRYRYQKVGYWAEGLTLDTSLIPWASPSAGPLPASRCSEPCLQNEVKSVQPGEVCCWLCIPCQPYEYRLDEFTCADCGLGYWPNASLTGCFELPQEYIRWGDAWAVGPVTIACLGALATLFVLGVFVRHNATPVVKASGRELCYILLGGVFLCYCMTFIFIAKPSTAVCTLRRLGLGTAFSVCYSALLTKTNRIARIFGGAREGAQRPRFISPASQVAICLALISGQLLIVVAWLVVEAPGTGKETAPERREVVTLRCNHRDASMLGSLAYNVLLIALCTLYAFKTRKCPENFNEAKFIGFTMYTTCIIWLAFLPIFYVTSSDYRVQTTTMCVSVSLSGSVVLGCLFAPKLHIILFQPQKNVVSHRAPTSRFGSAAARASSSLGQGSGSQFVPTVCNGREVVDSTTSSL

Structure (SMILES) | EC50
[2H]C([2H])([2H])O[C@]1(c2ccc(F)cc2)CC[C@H](Oc2ccn3c(CC4CC4)nnc3c2C(F)(F)F)CC1 [Example 99, 3-(Cyclopropylmethyl)-7-((1s,4s)-4-(4-fluorophenyl)-4-(methoxy-d3)cyclohexyloxy)-8-(trifluoromethyl)-[1,2,4]triazolo[4,3-a]pyridine] | 0.5 nM
N#C[C@]1(c2ccc(F)cc2)C[C@H](Oc2ccn3c(CC4CC4)nnc3c2C(F)(F)F)C1 [Example 50, (1s,3s)-3-(3-(Cyclopropylmethyl)-8-(trifluoromethyl)-[1,2,4]triazolo[4,3-a]pyridin-7-yloxy)-1-(4-fluorophenyl)cyclobutanecarbonitrile] | 2.7 nM
FC(F)(F)c1c(O[C@H]2C[C@H](c3ccccc3)C2)ccn2c(CC3CC3)nnc12 [Example 57, 3-(Cyclopropylmethyl)-7-((1r,3r)-3-phenylcyclobutoxy)-8-(trifluoromethyl)-[1,2,4]triazolo[4,3-a]pyridine] | 0.5 nM
Clc1cccc(COc2ccn3c(CC4CC4)nnc3c2Cl)c1 [Example 60, 8-Chloro-7-(3-chlorobenzyloxy)-3-(cyclopropylmethyl)-[1,2,4]triazolo[4,3-a]pyridine] | 18 nM
CO[C@]1(c2ccc(F)cc2)CC[C@H](Oc2ccn3c(C4CC4)nnc3c2C(F)(F)F)CC1 [Example 92, 3-Cyclopropyl-7-((1s,4s)-4-(4-fluorophenyl)-4-methoxycyclohexyloxy)-8-(trifluoromethyl)-[1,2,4]triazolo[4,3-a]pyridine] | 35 nM
Clc1c(OCCc2ccccc2)ccn2c(CC3CC3)nnc12 [Example 64, 8-Chloro-3-(cyclopropylmethyl)-7-phenethoxy-[1,2,4]triazolo[4,3-a]pyridine] | 32 nM
FC(F)(F)c1c(O[C@H]2CC[C@H](c3ccccc3)CC2)ccn2c(CC3CC3)nnc12 [Example 20, 3-(Cyclopropylmethyl)-7-((1r,4r)-4-phenylcyclohexyloxy)-8-(trifluoromethyl)-[1,2,4]triazolo[4,3-a]pyridine] | 0.4 nM
Clc1c(OCCCc2cccnc2)ccn2c(CC3CC3)nnc12 [Example 62, 8-Chloro-3-(cyclopropylmethyl)-7-(3-(pyridin-3-yl)propoxy)-[1,2,4]triazolo[4,3-a]pyridine] | 270 nM

Now from value to molecule:

EC50 | Structure (SMILES)
110 nM | COc1cc(COc2ccn3c(CC4CC4)nnc3c2Cl)ccc1F [Example 65, 8-Chloro-3-(cyclopropylmethyl)-7-(4-fluoro-3-methoxybenzyloxy)-[1,2,4]triazolo[4,3-a]pyridine]
0.8 nM | C[C@H](COc1ccn2c(CC3CC3)nnc2c1C(F)(F)F)c1c(F)cccc1Cl (single isomer, unassigned) [Example 10]
5.8 nM | FC(COc1ccn2c(CC3CC3)nnc2c1C(F)(F)F)c1ccccc1 (racemic) [Example 84, 3-(Cyclopropylmethyl)-7-(2-fluoro-2-phenylethoxy)-8-(trifluoromethyl)-[1,2,4]triazolo[4,3-a]pyridine]
11 nM | CC(C)(COc1ccn2c(CC3CC3)nnc2c1C(F)(F)F)c1ccc(F)cc1 [Example 6, 3-(Cyclopropylmethyl)-7-(2-(4-fluorophenyl)-2-methylpropoxy)-8-(trifluoromethyl)-[1,2,4]triazolo[4,3-a]pyridine]
0.2 nM | COc1ccccc1[C@H]1C[C@@H]1COc1ccn2c(CC3CC3)nnc2c1C(F)(F)F (racemic) [Example 37, (±)-3-(Cyclopropylmethyl)-7-(((1S,2S)-2-(2-methoxyphenyl)cyclopropyl)methoxy)-8-(trifluoromethyl)-[1,2,4]triazolo[4,3-a]pyridine]
5.5 nM | CC(C)(COc1ccn2c(CC3CC3)nnc2c1C(F)(F)F)c1ccc(Cl)cc1 [Example 2, 7-(2-(4-Chlorophenyl)-2-methylpropoxy)-3-(cyclopropylmethyl)-8-(trifluoromethyl)-[1,2,4]triazolo[4,3-a]pyridine]
